Here are results for nine compounds from ChEMBL document CHEMBL4400524, “Optimizing TRPM4 inhibitors in the MHFP6 chemical space” (Eur J Med Chem, 2019).

pIC50: −log10 of the molar value. The source made the active and inactive calls. No cut-off for these calls is given here.

Holding throughout (format): cell-based
In assay [1] the target is T1, Transient receptor potential cation channel subfamily M member 4 (Homo sapiens, UniProt Q8TD43). The experiment in a line: Inhibition of Flag-tagged TRPM4 (unknown origin) expressed in HEK293 cells assessed as reduction in intracellular Na+ influx after 45 mins by ANG2 dye-based fluorescence assay.
For assay [2], the target named is T1, Transient receptor potential cation channel subfamily M member 4. The experiment in a line: Inhibition of Flag-tagged TRPM4 (unknown origin) expressed in HEK293 cells assessed as reduction in intracellular Na+ influx at 10 uM after 45 mins by ANG2 dye-based fluorescence assay relative to control.
The target is the same in assay [3]. The experiment in a line: Inhibition of Flag-tagged TRPM4 (unknown origin) expressed in HEK293 cells assessed as reduction in intracellular Na+ influx up to 100 uM after 45 mins by ANG2 dye-based fluorescence assay.

T1 sequence (Q8TD43 whole entry): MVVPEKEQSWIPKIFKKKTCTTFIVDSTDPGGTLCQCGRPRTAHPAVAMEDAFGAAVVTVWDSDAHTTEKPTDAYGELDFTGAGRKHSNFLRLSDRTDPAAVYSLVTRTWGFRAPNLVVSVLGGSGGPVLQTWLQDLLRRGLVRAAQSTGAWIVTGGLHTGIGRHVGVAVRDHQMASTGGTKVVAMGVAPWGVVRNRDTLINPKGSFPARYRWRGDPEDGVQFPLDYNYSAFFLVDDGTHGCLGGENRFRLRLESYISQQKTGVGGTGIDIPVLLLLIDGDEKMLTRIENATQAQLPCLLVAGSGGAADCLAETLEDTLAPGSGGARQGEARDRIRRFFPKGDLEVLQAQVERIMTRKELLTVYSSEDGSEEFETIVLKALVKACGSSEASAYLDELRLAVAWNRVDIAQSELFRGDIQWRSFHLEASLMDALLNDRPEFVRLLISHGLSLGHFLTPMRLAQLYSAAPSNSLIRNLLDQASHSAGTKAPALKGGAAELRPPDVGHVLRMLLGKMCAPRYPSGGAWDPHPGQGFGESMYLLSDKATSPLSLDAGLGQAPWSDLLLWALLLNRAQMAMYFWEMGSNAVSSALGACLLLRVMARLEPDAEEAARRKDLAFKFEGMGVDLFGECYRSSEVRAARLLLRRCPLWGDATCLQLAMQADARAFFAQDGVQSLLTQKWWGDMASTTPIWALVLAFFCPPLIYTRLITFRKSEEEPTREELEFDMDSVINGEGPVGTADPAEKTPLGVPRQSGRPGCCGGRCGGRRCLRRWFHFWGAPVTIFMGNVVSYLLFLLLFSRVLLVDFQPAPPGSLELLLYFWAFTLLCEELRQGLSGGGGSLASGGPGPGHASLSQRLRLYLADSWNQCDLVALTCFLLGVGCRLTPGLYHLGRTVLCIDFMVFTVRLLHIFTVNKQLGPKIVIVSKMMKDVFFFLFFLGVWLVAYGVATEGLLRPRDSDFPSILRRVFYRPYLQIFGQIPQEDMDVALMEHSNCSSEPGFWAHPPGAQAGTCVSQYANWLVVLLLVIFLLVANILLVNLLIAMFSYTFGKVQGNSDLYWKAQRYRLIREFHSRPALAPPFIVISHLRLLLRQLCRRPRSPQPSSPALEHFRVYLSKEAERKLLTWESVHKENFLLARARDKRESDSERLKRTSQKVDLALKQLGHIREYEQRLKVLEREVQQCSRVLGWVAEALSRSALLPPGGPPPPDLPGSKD

In the case of `O=C(COc1ccccc1Cl)Nc1cc(-c2ccsc2)ccc1C(=O)O`, the negative-log IC50 (pIC50) in assay [1] was 5.23.

Regarding `O=C(COc1ccccc1Cl)Nc1cc(Cl)ccc1C(=O)NS(=O)(=O)C1CC1`, the negative logarithm of the IC50 (pIC50) in assay [1] is 5.55.

For `O=C(COc1ccccc1Cl)Nc1cc(Cl)c(Cl)cc1C(=O)O`, in assay [2], the inhibition turned out to be 30%.

Regarding `Cc1cc(Cl)ccc1OC(C)C(=O)Nc1cc(Cl)ccc1C(=O)O` (centres undefined), the pIC50 in assay [1] (hek293) is 5.80.

Regarding `O=C(COc1ccccc1Cl)Nc1cc(-c2nccs2)ccc1C(=O)O`, the pIC50 in assay [1] was 5.33.

On to `Cc1cccc(NC(=O)COc2ccccc2Cl)c1C(=O)O`, for which the negative-log IC50 (pIC50) in assay [1] is 5.89.

`N#Cc1ccc(C(=O)O)c(NC(=O)COc2ccccc2Cl)c1`: in assay [1], the pIC50 is 5.44.

As for `Cc1noc(C)c1-c1ccc(C(=O)O)c(NC(=O)COc2ccccc2Cl)c1`, the inhibition result in assay [3] was “inactive”.

On to `O=C(COc1ccccc1Cl)Nc1cc(-c2ncco2)ccc1C(=O)O`, for which the pIC50 in assay [1] is 5.31.

One may read the pIC50 as the negative decadic logarithm of the IC50, by convention in mol/L. Broadly, the inhibition is the relative decrease from the control value, in per cent.
